Data: ChEMBL document CHEMBL5506046, “Discovery of LLC355 as an Autophagy-Tethering Compound for the Degradation of Discoidin Domain Receptor 1” (J Med Chem, 2024)
Active and inactive are the calls of the source. The rule behind the calls is not given here.

Assays:
[1] = molecular target: T1, LC3/Epithelial discoidin domain-containing receptor 1 (Homo sapiens, UniProt Q08345+Q9BXW4+Q9GZQ8+Q9H492); assay: Autophagosome tethering activity at DDR1 in human NCI-H23 cells assessed as induction of protein degradation at 1 uM pretreated for 24 hrs followed by medium replacement with compound-free medium measured for 12 hrs by Western blot analysis; assay type: cell-based
[2] = molecular target: LC3/Discoidin domain-containing receptor 2 (Homo sapiens) (UniProt Q16832+Q9BXW4+Q9GZQ8+Q9H492); assay: Autophagosome tethering activity at DDR2 in human NCI-H23 cells assessed as induction of protein degradation at 100 to 1000 nM incubated for 24 hrs by immunoblotting analysis; assay type: cell-based; conditions: dose 100-1000 nM
[3] = molecular target: T1, LC3/Epithelial discoidin domain-containing receptor 1; assay: Autophagosome tethering activity at DDR1 in human NCI-H23 cells assessed as induction of protein degradation at 10 uM incubated for 6 hrs by TMT-based global proteomic profiling analysis; assay type: cell-based
[4] = Clearance in Sprague-Dawley rat at 2 mg/kg, iv measured up to 24 hrs by LC-MS/MS analysis; assay type: ADME, organism-based; conditions: in vivo
[5] = Half life in Sprague-Dawley rat at 10 mg/kg, po measured up to 24 hrs by LC-MS/MS analysis; assay type: ADME, organism-based; conditions: in vivo
[6] = molecular target: T1, LC3/Epithelial discoidin domain-containing receptor 1; assay: Autophagosome tethering activity at DDR1 in rapamycin-treated human NCI-H23 cells assessed as induction of protein degradation at 0.3 uM incubated for 12 hrs by Western blot analysis; assay type: cell-based
[7] = molecular target: T1, LC3/Epithelial discoidin domain-containing receptor 1; assay: Autophagosome tethering activity at DDR1 in human NCI-H23 cells assessed as induction of protein degradation at 10 uM incubated for 6 hrs by Western blot analysis; assay type: cell-based
NCI-H23 [8] = assay: Effect on DDR1 mRNA level in human NCI-H23 cells at 0.3 to 1 uM incubated for 24 hrs by qRT-PCR analysis; assay type: functional, cell-based; conditions: dose 0.3-1 µM
NCI-H23 [9] = assay: Inhibition of cell invasion in human NCI-H23 cells at 0.3 uM incubated for 24 hrs by transwell assay; assay type: functional, cell-based
NCI-H23 [10] = assay: Downregulation of PPIC expression in human NCI-H23 cells at 10 uM incubated for 6 hrs by Western blot analysis; assay type: functional, cell-based
[11] = AUC(0 to t) in Sprague-Dawley rat at 10 mg/kg, po measured up to 24 hrs by LC-MS/MS analysis; assay type: ADME, organism-based; conditions: in vivo
NCI-H23 [12] = assay: Downregulation of LIPA expression in human NCI-H23 cells at 10 uM incubated for 6 hrs by Western blot analysis; assay type: functional, cell-based
[13] = Toxicity in Sprague-Dawley rat at 10 mg/kg, po or 2 mg/kg, iv measured up to 24 hrs by LC-MS/MS analysis; assay type: organism-based; conditions: in vivo
NCI-H23 [14] = assay: Inhibition of cell migration in human NCI-H23 cells at 0.3 uM incubated for 24 hrs by transwell assay; assay type: functional, cell-based
NCI-H23 [15] = assay: Downregulation of EXO1 expression in human NCI-H23 cells at 10 uM incubated for 6 hrs by Western blot analysis; assay type: functional, cell-based
[16] = Tmax in Sprague-Dawley rat at 10 mg/kg, po measured up to 24 hrs by LC-MS/MS analysis; assay type: ADME, organism-based; conditions: in vivo
[17] = molecular target: T1, LC3/Epithelial discoidin domain-containing receptor 1; assay: Autophagosome tethering activity at DDR1 in chloroquine-treated human NCI-H23 cells assessed as induction of protein degradation at 1 uM incubated for 12 hrs by Western blot analysis; assay type: cell-based
NCI-H23 [18] = assay: Downregulation of CDK4 expression in human NCI-H23 cells at 10 uM incubated for 6 hrs by Western blot analysis; assay type: functional, cell-based
NCI-H23 [19] = assay: Downregulation of RBM3 expression in human NCI-H23 cells at 10 uM incubated for 6 hrs by Western blot analysis; assay type: functional, cell-based
[20] = molecular target: T1, LC3/Epithelial discoidin domain-containing receptor 1; assay: Autophagosome tethering activity at DDR1 in human NCI-H23 cells assessed as induction of protein degradation at 1 uM by immunoblotting analysis; assay type: cell-based; conditions: time 1-24 hrs, TDE = time-dependent effect
[21] = Oral bioavailability in Sprague-Dawley rat at 10 mg/kg measured up to 24 hrs by LC-MS/MS analysis; assay type: ADME, organism-based; conditions: in vivo
NCI-H23 [22] = assay: Inhibition of tumorigenicity in human NCI-H23 cells at 0.1 to 1 uM incubated for 10 days by colony formation assay; assay type: functional, cell-based; conditions: dose 0.1-1 µM, time 10.0 day
[23] = Cmax in Sprague-Dawley rat at 2 mg/kg, iv measured up to 24 hrs by LC-MS/MS analysis; assay type: ADME, organism-based; conditions: in vivo
[24] = molecular target: T1, LC3/Epithelial discoidin domain-containing receptor 1; assay: Autophagosome tethering activity at DDR1 in human NCI-H23 cells assessed as induction of protein degradation at 1 uM measured for >48 hrs by Western blot analysis; assay type: cell-based
[25] = molecular target: T1, LC3/Epithelial discoidin domain-containing receptor 1; assay: Autophagosome tethering activity at DDR1 in human NCI-H23 cells assessed as induction of protein degradation at 1 uM measured for 1 to 24 hrs in presence of cycloheximide by immunoblotting analysis; assay type: cell-based; conditions: time 1-24 hrs
[26] = Half life in Sprague-Dawley rat at 2 mg/kg, iv measured up to 24 hrs by LC-MS/MS analysis; assay type: ADME, organism-based; conditions: in vivo
[27] = molecular target: T1, LC3/Epithelial discoidin domain-containing receptor 1; assay: Autophagosome tethering activity at DDR1 in human NCI-H23 cells assessed as induction of protein degradation incubated for 12 hrs by immunoblotting analysis; assay type: cell-based
[28] = molecular target: T1, LC3/Epithelial discoidin domain-containing receptor 1; assay: Autophagosome tethering activity at DDR1 in bafilomycin A1-treated human NCI-H23 cells assessed as induction of protein degradation at 1 uM incubated for 12 hrs by Western blot analysis; assay type: cell-based
[29] = Tmax in Sprague-Dawley rat at 2 mg/kg, iv measured up to 24 hrs by LC-MS/MS analysis; assay type: ADME, organism-based; conditions: in vivo
NCI-H23 [30] = assay: Downregulation of CDCA7 expression in human NCI-H23 cells at 10 uM incubated for 6 hrs by Western blot analysis; assay type: functional, cell-based
NCI-H23 [31] = assay: Induction of apoptosis in human NCI-H23 cells assessed as increase in cleaved PARP level at 1 uM incubated for 24 hrs by Western blot analysis; assay type: functional, cell-based
[32] = Cmax in Sprague-Dawley rat at 10 mg/kg, po measured up to 24 hrs by LC-MS/MS analysis; assay type: ADME, organism-based; conditions: in vivo
[33] = AUC(0 to t) in Sprague-Dawley rat at 2 mg/kg, iv measured up to 24 hrs by LC-MS/MS analysis; assay type: ADME, organism-based; conditions: in vivo
NCI-H23 [34] = assay: Downregulation of GOLM1 expression in human NCI-H23 cells at 10 uM incubated for 6 hrs by Western blot analysis; assay type: functional, cell-based
[35] = molecular target: T1, LC3/Epithelial discoidin domain-containing receptor 1; assay: Autophagosome tethering activity at DDR1 in human NCI-H23 cells assessed as protein degradation at 0.3 uM measured after 24 hrs by immunoblotting analysis relative to control; assay type: cell-based
[36] = Toxicity in Sprague-Dawley rat assessed as drug tolerance at 10 mg/kg, po or 2 mg/kg, iv measured up to 24 hrs by LC-MS/MS analysis; assay type: organism-based; conditions: in vivo
NCI-H23 [37] = assay: Downregulation of BNIP3 expression in human NCI-H23 cells at 10 uM incubated for 6 hrs by Western blot analysis; assay type: functional, cell-based
NCI-H23 [38] = assay: Induction of apoptosis in human NCI-H23 cells assessed as increase in cleaved PARP level at 0.3 uM incubated for 24 hrs by Western blot analysis; assay type: functional, cell-based
[39] = molecular target: T1, LC3/Epithelial discoidin domain-containing receptor 1; assay: Autophagosome tethering activity at DDR1 in human PANC-1 cells assessed as induction of protein degradation at 100 to 1000 nM measured after 24 hrs by immunoblotting analysis; assay type: cell-based; conditions: dose 100-1000 nM
[40] = molecular target: T1, LC3/Epithelial discoidin domain-containing receptor 1; assay: Autophagosome tethering activity at DDR1 in human MIA PaCa-2 cells assessed as induction of protein degradation at 100 to 1000 nM measured after 24 hrs by immunoblotting analysis; assay type: cell-based; conditions: dose 100-1000 nM
NCI-H23 [41] = assay: Downregulation of REEP3 expression in human NCI-H23 cells at 10 uM incubated for 6 hrs by Western blot analysis; assay type: functional, cell-based

With `CCc1ccc(C(=O)Nc2cc(CN3CCN(CCOCC(=O)NCCCN(C(=O)c4ccc(C)cc4)[C@@H](c4nc5cc(Cl)ccc5c(=O)n4Cc4ccccc4)C(C)C)CC3)cc(C(F)(F)F)c2)cc1C#Cc1cnc2ccnn2c1` as the compound, how does the Activity [1] read?
Its Activity is “Active”.

And the Activity [2]?
The Activity was “inactive”.

What about the Activity [3] of the same compound?
Its Activity is “Active”.

What about the clearance [4] of the same compound?
The clearance was 1.11 mL/min/kg.

And the half-life [5]?
Its half-life is 3.99 h.

And the Activity [6]?
The Activity was “Active”.

And the Activity [7]?
The Activity was “Active”.

And the Activity (NCI-H23 [8])?
The Activity was “inactive”.

And the inhibition (NCI-H23 [9])?
The inhibition was “Active”.

And the Activity (NCI-H23 [10])?
The Activity was “Active”.

What about the AUC(0-t) at 24 h [11] of the same compound?
Its AUC(0-t) at 24 h is 1150 ng·h/mL.

What about the Activity (NCI-H23 [12]) of the same compound?
Its Activity is “Active”.

And the Activity [13]?
Its Activity is “Non-Toxic”.

What about the inhibition (NCI-H23 [14]) of the same compound?
Its inhibition is “Active”.

And the Activity (NCI-H23 [15])?
The Activity was “Active”.

What about the Tmax [16] of the same compound?
Its Tmax is 3.33 h.

And the Activity [17]?
Its Activity is “inactive”.

And the Activity (NCI-H23 [18])?
Its Activity is “Active”.

What about the Activity (NCI-H23 [19]) of the same compound?
The Activity was “Active”.

And the Activity [20]?
Its Activity is “Tde”.

What about the bioavailability [21] of the same compound?
The bioavailability was 0.77%.

And the inhibition (NCI-H23 [22])?
The inhibition was “Active”.

What about the Cmax [23] of the same compound?
The Cmax was 27000 ng/mL.

And the Activity [24]?
Its Activity is “Active”.

And the Activity [25]?
Its Activity is “inactive”.

What about the half-life [26] of the same compound?
Its half-life is 3.18 h.

What about the DC50 [27] of the same compound?
The DC50 was 151 nM.

What about the Activity ([27]; dose 1-10000 nM) of the same compound?
Its Activity is “Dose-Dependent Effect”.

What about the Activity [28] of the same compound?
The Activity was “inactive”.

What about the Tmax [29] of the same compound?
Its Tmax is 4.8 min.

What about the Activity (NCI-H23 [30]) of the same compound?
The Activity was “Active”.

And the Activity (NCI-H23 [31])?
Its Activity is “Active”.

And the Cmax [32]?
Its Cmax is 226 ng/mL.

What about the AUC(0-t) at 24 h [33] of the same compound?
The AUC(0-t) at 24 h was 30100 ng·h/mL.

And the Activity (NCI-H23 [34])?
Its Activity is “Active”.

What about the Activity [35] of the same compound?
Its Activity is 40%.

What about the Activity [36] of the same compound?
The Activity was “Non-Toxic”.

What about the Activity (NCI-H23 [37]) of the same compound?
The Activity was “Active”.

And the Activity (NCI-H23 [38])?
The Activity was “inactive”.

What about the Activity [39] of the same compound?
The Activity was “Active”.

What about the Activity [40] of the same compound?
The Activity was “Active”.

What about the Activity (NCI-H23 [41]) of the same compound?
The Activity was “Active”.
